The values below come from publication PMC5590106 (Biochemical and biophysical research communications, 2017).

What all share (assay type): biochemical
The target in experiment [1] is T1, C. elegans CED-3 (crude lysate, CED-3L) (Caenorhabditis elegans, UniProt P42573).
T1 sequence (P42573 221-374 limits assumed): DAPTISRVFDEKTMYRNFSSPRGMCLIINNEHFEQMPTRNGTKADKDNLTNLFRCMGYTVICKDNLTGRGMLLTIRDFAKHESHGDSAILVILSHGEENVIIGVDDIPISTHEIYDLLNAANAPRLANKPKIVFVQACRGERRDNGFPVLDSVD
T1 sequence (P42573 389-503 limits assumed): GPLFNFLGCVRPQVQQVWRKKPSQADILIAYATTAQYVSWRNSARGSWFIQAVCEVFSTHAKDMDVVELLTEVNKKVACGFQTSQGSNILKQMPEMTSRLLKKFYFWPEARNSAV
Description: CED-3 fluorogenic assay.

Experiment [2] deals with T2, purified C. elegans CED-3 (Caenorhabditis elegans, UniProt P42573).
T2 sequence (P42573 221-374 limits assumed): T1 sequence (P42573 221-374 limits assumed)
T2 sequence (P42573 389-503 limits assumed): T1 sequence (P42573 389-503 limits assumed)
Description: CED-3 fluorogenic assay. The following applies: for Purified CED-3 Hill Slope Value: determined by XLfit in ActivityBase.

Another experiment concerns the target T3, Human Caspase 3 (HCASP3) (Homo sapiens, UniProt P42574).
T3 sequence (P42574 29-175 limits assumed): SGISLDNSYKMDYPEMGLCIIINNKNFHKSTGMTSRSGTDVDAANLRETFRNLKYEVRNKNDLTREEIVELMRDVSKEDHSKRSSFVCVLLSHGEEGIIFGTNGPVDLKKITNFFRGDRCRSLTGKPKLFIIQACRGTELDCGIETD
T3 sequence (P42574 176-277 limits assumed): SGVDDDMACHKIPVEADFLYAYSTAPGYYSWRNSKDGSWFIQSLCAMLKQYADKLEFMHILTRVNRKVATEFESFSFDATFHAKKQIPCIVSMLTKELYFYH
Description: Human caspase-3 fluorogenic assay.

For the compound `CC(=O)N[C@@H](CC(=O)O)C(=O)N[C@@H](CCC(=O)O)C(=O)N[C@H](C(=O)N[C@H](C=O)CC(=O)O)C(C)C` [Ac-DEVD-CHO, reference compound], the IC50 came to 0.0019 µM in experiment [1] and 0.0027 µM in experiment [2]. Further, the “calculated Hill slope on CED-3L” value in experiment [1] (crude lysate, Fig. 1A) is −0.994.

As to `O=C(/C=C/c1ccccc1)NNC1=NS(=O)(=O)c2ccccc21` [BAS01847186], the “potency on HCASP3 compared to CED-3” value at Human Caspase 3 (HCASP3) is reported as “as potent or more so on HCASP3”.

The compound `CCCOC(=O)/C(=C\C=C\c1ccco1)NC(=O)c1ccccc1` [BAS 00187854] returned an IC50 in experiment [1] of 34.7 µM. In experiment [2], the half-maximal inhibitory concentration (IC50) was found to be 14.6 µM and the “Purified CED-3 Hill Slope Value” worked out at 1.27.

Compound `CC(=O)c1ccc(-c2ccc(/C=C3/SC(=S)NC3=O)o2)cc1` [BAS 00253468] showed an IC50 in experiment [1] of 21 µM. Besides, in experiment [2], the half-inhibitory concentration (IC50) came out at 9 µM and the “Purified CED-3 Hill Slope Value” was determined as 1.79.

`COc1ccc(N2C(=O)/C(=C/c3ccco3)C(=O)NC2=S)cc1` [BAS 00519146]: the “Purified CED-3 Hill Slope Value” in experiment [2] amounted to 1.6. In addition, the IC50 on Human Caspase 3 (HCASP3) (read-out: IC50 HCASP-3, purified HCASP3, Fig. 3C) came to 10.8 µM.

`O=C(/C=C/c1ccco1)c1ccc(NC(=O)c2cccs2)cc1` [BAS 00835000]: the IC50 was 30 µM in experiment [1] and 4.9 µM in experiment [2]. For the same compound, the “Purified CED-3 Hill Slope Value” in experiment [2] was 1.38.

Consider `O=C1NC(=S)N(c2ccc(F)cc2)C(=O)/C1=C/c1ccco1` [BAS 01202237], for which the “Purified CED-3 Hill Slope Value” in experiment [2] was found to be 1.5.

As for `Nc1ccc(N2Cc3ccccc3C2)cc1` [BAS 01988614], the IC50 in experiment [1] worked out at 43.1 µM. For the same compound, in experiment [2], the IC50 amounted to 13.6 µM and the “Purified CED-3 Hill Slope Value” is on record as 0.62.

Take `O=c1cc2oc3cc(O)c(O)cc3c(-c3ccccn3)c-2cc1O` [BAS 05223612]: in experiment [1], the IC50 is 24.5 µM. Also, in experiment [2], the IC50 was found to be 3.9 µM, the “inhibition of CED-3 (in words)” value is on record as “inhibited” and the “Purified CED-3 Hill Slope Value” is 1.7. Besides, the “inhibition of HCASP3 (in words)” value against Human Caspase 3 (HCASP3) (dose-response, at the concentrations tested) is listed as “inhibited”.
